Experimental data from ChEMBL document CHEMBL1143698, “Conformation selectivity in the binding of diazepam and analogues to alpha1-acid glycoprotein” (Bioorg Med Chem, 2007).

Key:
Homo sapiens [1] = species on record: Homo sapiens; test: Binding affinity to human alpha1-acid glycoprotein F1-S variant at 30 uM
[2] = molecular target: Alpha-1-acid glycoprotein 1 (Homo sapiens, UniProt P02763); test: Binding affinity to human alpha1-acid glycoprotein at 30 uM
Homo sapiens [3] = species on record: Homo sapiens; test: Binding affinity to human alpha1-acid glycoprotein A variant at 30 uM
Albumin = Albumin (Homo sapiens, UniProt P02768); test: Binding affinity to 30 uM human serum albumin at 30 uM
Homo sapiens [4] = species on record: Homo sapiens; test: Binding affinity to human alpha1-acid glycoprotein F1-S variant at 60 uM
Homo sapiens [5] = species on record: Homo sapiens; test: Binding affinity to human alpha1-acid glycoprotein A variant at 60 uM

Chain of Albumin (P02768 whole entry): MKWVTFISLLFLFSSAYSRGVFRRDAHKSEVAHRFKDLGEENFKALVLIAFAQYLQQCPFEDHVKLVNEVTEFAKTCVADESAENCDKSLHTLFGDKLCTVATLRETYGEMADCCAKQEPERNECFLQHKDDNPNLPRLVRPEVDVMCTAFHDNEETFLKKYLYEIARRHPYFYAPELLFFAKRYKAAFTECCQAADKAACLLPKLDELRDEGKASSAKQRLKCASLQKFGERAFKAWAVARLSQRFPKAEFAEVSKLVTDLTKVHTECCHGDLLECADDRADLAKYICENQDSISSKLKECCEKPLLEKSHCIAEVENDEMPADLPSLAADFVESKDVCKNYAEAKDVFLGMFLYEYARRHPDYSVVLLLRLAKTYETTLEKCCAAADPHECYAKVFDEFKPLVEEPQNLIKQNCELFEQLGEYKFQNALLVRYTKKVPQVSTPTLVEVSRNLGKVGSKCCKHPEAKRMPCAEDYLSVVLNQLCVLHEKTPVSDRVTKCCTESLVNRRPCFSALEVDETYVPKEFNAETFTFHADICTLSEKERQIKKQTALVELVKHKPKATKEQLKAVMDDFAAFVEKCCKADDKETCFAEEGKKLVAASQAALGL
Chain of Alpha-1-acid glycoprotein 1 (P02763 whole entry): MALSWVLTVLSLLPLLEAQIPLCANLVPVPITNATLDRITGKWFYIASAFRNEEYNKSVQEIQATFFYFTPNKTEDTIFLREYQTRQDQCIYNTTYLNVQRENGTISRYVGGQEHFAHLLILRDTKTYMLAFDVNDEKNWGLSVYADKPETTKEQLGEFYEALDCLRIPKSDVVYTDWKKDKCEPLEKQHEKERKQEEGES

Row | Compound | Activity (Homo sapiens [1]) | Activity [2] | Activity (Homo sapiens [3]) | Activity (Albumin) | Activity (Homo sapiens [4]) | Activity (Homo sapiens [5])
1 | CC1(C)N=C(c2ccccc2)c2cc(Cl)ccc2NC1=O | 9 µM | 13 µM | 12 µM | 13 µM | – | –
2 | CN1C(=O)C(C)(C)N=C(c2ccccc2)c2cc(Cl)ccc21 | – | 14 µM | – | 17 µM | – | –
3 | CN1C(=O)CN=C(c2ccccc2)c2cc(Cl)ccc21 [DIAZEPAM] | 9 µM | 10 µM | 12 µM | – | 12 µM | 17 µM
4 | O=C1CN=C(c2ccccc2)c2cc(Cl)ccc2N1 [NORDAZEPAM] | – | 9 µM | – | 17 µM | – | –
